Columns and labels:
Type in all cases: in vivo
[1] = tested on: A2058 xenograft tumor model; test: Human melanoma A2058 cell subcutaneous xenograft tumor model; conditions: azvudine 1 mg/kg, dacarbazine 60 mg/kg, combination 1 + 60 mg/kg
Experimental: (§1) Human melanoma cells A2058 (Cat. No.: CRL-11147) were cultured in vitro as a monolayer in DMEM medium containing 10% fetal bovine serum, 100 U/mL penicillin and 100 μg/mL streptomycin, in a 37° C. and 5% CO2 incubator. The cells were routinely digested with trypsin-EDTA and passaged twice a week. When the cell saturation reached 80%-90% and the cell number achieved the requirement, the cells were collected, counted and inoculated.
0.2 mL (5×10^6) of A2058 cells were added with Matrigel, and the mixture was subcutaneously inoculated on the right back of each mouse. The grouping administration was started when the average tumor volume reached about 136 mm^3.

[2] = tested on: OVCAR-8 human ovarian cancer model; test: OVCAR-8 human ovarian cancer subcutaneous xenograft tumor model; conditions: azvudine 1 mg/kg, paclitaxel 15 mg/kg, avastin 10 mg/kg, combinations 1 + 15 and 1 + 10 mg/kg
Experimental: OVCAR-8 cells were cultured in RPMI1640 medium containing 10% fetal bovine serum. OVCAR-8 cells in the exponential growth phase were collected, resuspended in PBS to an appropriate concentration and mixed with Matrigel at a ratio of 1:1. The resulting mixture was used for subcutaneous inoculation of tumor in mice.
1×10^7 OVCAR-8 cells were inoculated subcutaneously on the right side of female mice. When the average tumor volume achieved 174.25 mm^3, the mice were randomly divided into groups according to tumor size.
The experimental protocols for animal experiments in this experiment were reviewed and approved by the CrownBio IACUC committee. During the experiment, the animal experiments were performed in accordance with the requirements of AAALAC. After tumor inoculation was completed, the impact of tumor growth and treatment on normal behavior of animals was routinely monitored, specifically the activity of experimental animals, food intake and water intake, body weight gain or loss (body weight was measured twice a week), eye, hair and other abnormalities. The clinical symptoms observed during the experiment were recorded in the original data. The tumor volume was calculated according to the following formula: tumor volume (mm^3)=½×(a×b^2) (where a represents long diameter and b represents short diameter).
Relative tumor proliferation rate, T/C %, refers to the percentage value of the relative tumor volume or tumor weight of the treatment group and the control group at a certain time point, which was calculated as follows: • T/C %=TRTV/CRTV×100% (TRTV: the average RTV of the treatment group; CRTV: the average RTV of the vehicle control group; RTV=Vt/V0, where V0 is the tumor volume of the animal when grouped, and Vt is the tumor volume of the animal after treatment); • or T/C %=TTW/CTW×100% (TTW: the average tumor weight of the treatment group at the end of the experiment; CTW: the average tumor weight of the vehicle control group at the end of the experiment).
Relative tumor inhibition rate, TGI (%), was calculated according to the formula as follows: TGI %=(1−T/C)×100%. (T and C are the relative tumor volumes (RTV) or tumor weights (TW) of the treatment group and the control group at a specific time point).
To compare tumor volumes of different treatment groups on a given day, first the assumption of homogeneity of variance among all groups was tested using the Bartlett test. When the p-value of Bartlett's test was not less than 0.05, whether all group means were equal was tested using one-way ANOVA. If the p-value of the one-way ANOVA was less than 0.05, pairwise comparisons among all groups were conducted using Tukey's HSD test, or pairwise comparisons between each treatment group and control group were conducted using Dunnett's t-test. When the p-value of Bartlett's test was less than 0.05, whether the medians of all groups were equal was tested using Kruskal Wallis test. If the p-value of the Kruskal Wallis test was less than 0.05, pairwise comparisons among all groups or between each treatment group and control group were conducted using Conover test, and the corresponding p-value correction was performed according to the number of groups in the multiple test.

[3] = tested on: LoVo xenograft tumor model; test: LoVo human colon cancer subcutaneous xenograft tumor model; conditions: 21st day of administration, azvudine 1 mpk, capecitabine 400 mpk, combination 1 + 400 mpk; for Tumor volume (mm^3): BALB/c nude mice, p.o. QD x 3 weeks
Experimental: as §1, with “colon cancer” for “melanoma”, “LoVo” for “A2058”, “ECACC-87060101)” for “CRL-11147)”, “F12K” for “DMEM”
0.1 mL)(10×10^6) of LoVo cells were subcutaneously inoculated on the right back of each mouse. The grouping administration was started when the average tumor volume reached about 147 mm^3.
The tumor volume changes and the tumor weight changes in each group (on the 21st day of administration) after administration of test drugs for treating BALB/c nude mice with Lovo cell subcutaneous xenograft tumor are shown in Table 5 and Table 6 respectively.

[4] = tested on: Daudi xenograft tumor model; test: Human Burkitt's lymphoma cell Daudi subcutaneous xenograft tumor model; conditions: combination 1 + 50 mg/kg; for Tumor volume (mm^3) on the 27th day: CB 17 SCID mice, QD x 4 weeks, azvudine 1 mg/kg p.o., cyclophosphamide 50 mg/kg i.p.
Experimental: Human Burkitt's lymphoma cells Daudi (Cat. No.: DSMZ-ACC129) were in vitro suspended and cultured in RPMI 1640 medium containing 10% fetal bovine serum, 2 mM glutamine, 100 U/mL penicillin and 100 μg/mL streptomycin, in a 37° C. and 5% CO2 incubator. When the cell saturation achieved 80%-90% and the cell number reached the requirement, the cells were collected, counted and inoculated.
0.2 mL (10×10^6) of Daudi cells (added with Matrigel at a volume ratio of 1:1) were subcutaneously inoculated on the right back of each mouse. The grouping administration was started when the average tumor volume reached about 100 mm^3.
The changes of tumor volume and tumor weight in each group after administration of test drugs for treating CB 17 SCID mice with Daudi cell subcutaneous xenograft tumor are shown in Table 8 and Table 9 respectively.

[5] = based on tumor volume, 14th day
[6] = based on tumor volume, 27th day, azvudine 1 mg/kg, cyclophosphamide 50 mg/kg

`[N-]=[N+]=N[C@]1(CO)O[C@@H](n2ccc(N)nc2=O)[C@@H](F)[C@@H]1O` [Azvudine, azvudine] was tested, and the “Tumor volume (mm^3) on the 14th day” value ([1]; 14th day of administration, listed as azvudine) was 2253 mm^3, the “T/C (%)” value [1, 5] was 79.67% and the “TGI (%)” value [1, 5] was 18.22%. The “T/C (%)” value ([2]; 34th day after grouping) was 81.91%, the “TGI (%)” value ([2]; 34th day after grouping) was 18.09% and the “Tumor volume (x ± S)” value ([2]; 34th day after grouping) was 460.67 ± 105.37(6). The average tumor volume ([2]; 34th day of administration) was 460.67 mm^3, the “Tumor volume (mm^3)” value [3] was 902 ± 163 mm^3 and the “Tumor volume (mm^3)” value ([3]; listed as azvudine) was 902 mm^3. For the same compound, the “Tumor weight” value [3] was 0.937 ± 0.142 g, the “T/C (%)” value ([3]; based on tumor volume) was 62.00% and the “TGI (%)” value ([3]; based on tumor volume) was 43.40%. For the same compound, the “T/C (%)” value ([3]; based on tumor weight) was 66.37%, the “Tumor volume (mm^3) on the 27th day” value ([4]; 27th day of administration) was 909 ± 120 mm^3 and the “Tumor volume (mm^3) on the 27th day” value ([4]; 27th day of administration, listed as azvudine) was 909 mm^3. For the same compound, the “Tumor weight (g) (On the 27th day)” value ([4]; 27th day of administration, azvudine 1 mg/kg, cyclophosphamide 50 mg/kg) was 0.996 ± 0.143 g, the “T/C (%)” value [4, 6] was 30.64% and the “TGI (%)” value [4, 6] was 71.09%. The “T/Cweight (%)” value ([4]; based on tumor weight, 27th day, azvudine 1 mg/kg, cyclophosphamide 50 mg/kg) was 33.38%.
